Test results from US9988423B2, “Organogels and emulsions for biological and non-biological applications” (Agency for Science, Technology and Research, priority 2012, dated 2018).
Residues, ends and D or L forms follow the SMILES beside them. No end group written: not given here.

Legend:
[1] = Stability of peptide emulsions in oil:water mixtures (phase separation); assay type: physicochemical; details: 7.5 mg/ml peptide in oil:water 50:50, 80:20, 20:80; in comparison to controls
Protocol: 7.5 mg/ml Ac-IVD-COOH (L) were dissolved in solvent mixtures of oil:water (50:50, 80:20, 20:80).

[2] = Organogel formation (gelation) of peptides in organic solvents; assay type: physicochemical
Protocol: The exemplary peptides are Ac-ID-COOH (L) (dimer), Ac-IVD-COOH (L) (trimer) and Ac-LIVAGD-COOH (L) (hexamer). The organogels depicted in (C) are (1) Ac-ID-COOH (L) 10 mg/ml in ethyl acetate, (2) Ac-ID-COOH (L) 10 mg/ml in toluene, (3) Ac-IVD-COOH (L) 2 mg/ml in acetonitrile, (4) Ac-IVD-COOH (L) 2 mg/ml in ethyl acetate, (5) Ac-IVD-COOH (L) 5 mg/ml in acetone, (6) Ac-LIVAGD-COOH (L) 5 mg/ml in toluene, and (7) Ac-LIVAGD-COOH (L) 10 mg/ml in ethyl acetate.
The organogels depicted in (B) are (1) Ac-IVF-COOH (L) 5 mg/ml in ethyl acetate, (2) Ac-IVF-COOH (L) 5 mg/ml in acetone, (3) Ac-IVF-COOH (L) 5 mg/ml in acetonitrile, (4) Ac-IVF-COOH (L) 5 mg/ml in chloroform, (5) Ac-IVW-COOH (L) 5 mg/ml in acetone, (6) Ac-IVW-COOH (L) 5 mg/ml in ethyl acetate, and (7) Ac-LIVAGF-COOH (L) 5 mg/ml in acetone.
Gels with increasing concentration of Ac-IVD-COOH (L) were prepared in ethyl acetate. […] Organogels of 2 mg/ml and 5 mg/ml Ac-IVD-COOH (L) in ethyl acetate were analyzed by field emission scanning electron microscopy (FESEM). FIGS. 3B and 3C show the effect of the peptide concentration on organogelation for the hexamer Ac-LIVAGD-COOH (L) in acetonitrile or ethyl acetate.
The formulation of the peptide organogels depends on several factors, such as peptide concentration, polarity of the organic solvent, peptide sequence and type of solvent used (see FIG. 3 as well as FIGS. 10A-G and 11). For example, increasing the peptide concentration reduced the gelation time for the formulation of peptide organogels. Based on the experimental data disclosed herein and his general knowledge, a person skilled in the art would have no problems in figuring out suitable gelation conditions (e.g. a suitable organic solvent) for a given peptide. For example, a skilled person knows about the nature of an organic solvent with respect to its polarity or non-polarity. […] Obviously, there is interaction with the polar head group of the peptide. […] Also, it seems that planar configurations (benzene ring, C═O, nitrile) within the solvent helps to stabilize the gel. This might be explained with a more favourable interaction of p-, sp^2-, or sp-orbitals.

Row | Compound | phase separation of emulsion [1] | effect of peptide concentration on organogelation ([2]; in ethyl acetate, concentrations above 10 mg/ml (1% w/v)) | organogel formation in organic solvents [2] | preferred gelation solvent ([2]; screening for quantum dot loading) | effect of peptide concentration on organogelation ([2]; in acetonitrile, increasing concentration 1-20 mg/ml) | effect of peptide concentration on organogelation ([2]; in ethyl acetate, increasing concentration 5, 10, 20 mg/ml)
1 | CC[C@H](C)[C@H](NC(C)=O)C(=O)N[C@H](C(=O)N[C@@H](CC(=O)O)C(=O)O)C(C)C [Ac-IVD-COOH (L)] (Ac-Ile-Val-Asp-OH) | No phase separation | only partial gelation | formed organogels | gelled preferably in ethyl acetate | – | –
2 | CC[C@H](C)[C@H](NC(C)=O)C(=O)N[C@H](C(=O)N[C@@H](Cc1ccccc1)C(=O)O)C(C)C [Ac-IVF-COOH (L)] | – | – | formed organogels | – | – | –
3 | CC[C@H](C)[C@H](NC(C)=O)C(=O)N[C@H](C(=O)N[C@@H](Cc1c[nH]c2ccccc12)C(=O)O)C(C)C [Ac-IVW-COOH (L)] (Ac-Ile-Val-Trp-OH) | – | – | formed organogels | – | – | –
4 | Ac-LIVAGD [Ac-LIVAGD-COOH (L)] | – | – | formed organogels | – | increased size of the organogel | partial gelation
